In patent publication US20100298141A1, “SUBSTITUTED PYRIDINE N-OXIDE HERBICIDES” (E. I. DU PONT DE NEMOURS AND COMPANY, priority 2007, published 2010):

Assays:
Goosegrass = assay: Test C pre-/postemergence test; assay type: in vivo, Eleusin indica; conditions: Preemergence
Method in brief: (§1)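 Test chemicals were formulated with surfactant in a non-phytotoxic solvent and sprayed both on freshly planted seeds (preemergence) and on 1- to 4-leaf plants of 2–18 cm (postemergence). Flooded-paddy pots received compound directly into 3 cm of standing water, maintained for the test.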

crabgrass = assay: Test A pre-/postemergence greenhouse test; assay type: in vivo, Digitaria sanguinalis; conditions: for Crabgrass, Large plant response rating: 0 to 100 scale
Method in brief: (§2)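 Test compounds in non-phytotoxic solvent with surfactant were applied as a preemergence soil spray to seeded loam/sand pots and, concurrently, postemergence to plants at 2–10 cm, one- to two-leaf stage. About ten days in greenhouse, then injury visually rated against untreated controls.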

corn = assay: Test C pre-/postemergence test; assay type: in vivo, Zea mays
Method in brief: as §1

woolly cupgrass = assay: Test C pre-/postemergence test; assay type: in vivo, Eriochloa villosa; conditions: Preemergence
Method in brief: as §1

[1] = test system: common (oilseed) sunflower; assay: Test C pre-/postemergence test; assay type: in vivo, Helianthus annuus; conditions: Preemergence
Method in brief: as §1

wild oat = assay: Test C pre-/postemergence test; assay type: in vivo, Avena fatua; conditions: Preemergence
Method in brief: as §1

green foxtail = assay: Test C pre-/postemergence test; assay type: in vivo, Setaria viridis; conditions: Preemergence
Method in brief: as §1

yellow nutsedge = assay: Test C pre-/postemergence test; assay type: in vivo, Cyperus esculentus; conditions: Preemergence
Method in brief: as §1

blackgrass = assay: Test C pre-/postemergence test; assay type: in vivo, Alopecurus myosuroides
Method in brief: as §1

duck salad = assay: Test C flooded paddy test; assay type: in vivo, Heteranthera limosa; conditions: Flood
Method in brief: (§3)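 Compound was added to standing water 3 cm above soil, flood maintained, and plants held in a greenhouse before visual scoring against controls at 13 to 15 days.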

redroot pigweed = assay: Test A pre-/postemergence greenhouse test; assay type: in vivo, Amaranthus retroflexus; conditions: for Pigweed plant response rating: 0 to 100 scale
Method in brief: as §2

eastern black nightshade = assay: Test C pre-/postemergence test; assay type: in vivo, Solanum ptycanthum; conditions: Preemergence
Method in brief: as §1

common ragweed = assay: Test C pre-/postemergence test; assay type: in vivo, Ambrosia elation; conditions: Preemergence
Method in brief: as §1

Italian ryegrass = assay: Test C pre-/postemergence test; assay type: in vivo, Lolium multiflorum; conditions: Preemergence
Method in brief: as §1

umbrella sedge = assay: Test C flooded paddy test; assay type: in vivo, Cyperus difformis; conditions: Flood
Method in brief: as §3

wheat = assay: Test C pre-/postemergence test; assay type: in vivo, Triticum aestivum; conditions: Preemergence
Method in brief: as §1

morningglory = assay: Test A pre-/postemergence greenhouse test; assay type: in vivo, Ipomoea spp.; conditions: for Morningglory plant response rating: 0 to 100 scale
Method in brief: as §2

[2] = 31 g ai/ha, scale 0 to 100 (0 no effect, 100 complete control)
[3] = Postemergence, 125 g ai/ha, 0 is no effect, 100 is complete control
[4] = Postemergence, 500 g ai/ha, 0 is no effect, 100 is complete control
[5] = Preemergence, 125 g ai/ha, 0 no effect, 100 complete control
[6] = Preemergence, 500 g ai/ha, 0 to 100 scale where 0 is no effect and 100 is complete control
[7] = 62 g ai/ha, Preemergence, scale 0 to 100
[8] = Preemergence, 31 g ai/ha, scale 0 to 100 (0 no effect, 100 complete control)
[9] = preemergence, 125 g ai/ha, scale 0 (no effect) to 100 (complete control)
[10] = 62 g ai/ha, scale 0 to 100, 0 no effect, 100 complete control, 13 to 15 days
[11] = 125 g ai/ha, scale 0 to 100, 0 no effect, 100 complete control, 13 to 15 days

Cc1cc[n+]([O-])c(S(=O)(=O)C(Cl)c2c(C(F)(F)F)nn(C)c2Cl)c1 (racemic) [Compound 22]
90: Crabgrass, Large plant response rating (crabgrass; [5]) | Plant response rating, Crabgrass, Large (crabgrass; [6]) | Plant response rating, Ducksalad (duck salad; 250 g ai/ha, scale 0 to 100 (0 no effect, 100 complete control)) | Plant response rating, Morningglory (morningglory; [6])
40: Crabgrass, Large plant response rating (crabgrass; [3]) | Ryegrass, Italian plant response rating (Italian ryegrass; 62 g ai/ha, scale 0 to 100) | Morningglory plant response rating (morningglory; [4])
10: Pigweed plant response rating (redroot pigweed; [3])
0: Plant response rating, Corn (corn; [8]) | Sunflower plant response rating ([1]; 62 g ai/ha, scale 0 to 100) | Plant response rating, Sunflower [1, 2] | Plant response rating, Oat, Wild (wild oat; [2]) | Plant response rating, Nightshade (eastern black nightshade; [2]) | Plant response rating, Ragweed (common ragweed; [2]) | Plant response rating, Ryegrass, Italian (Italian ryegrass; [2]) | Wheat plant response rating (wheat; 62 g ai/ha, scale 0 to 100) | Plant response rating, Wheat (wheat; [2])
30: Corn plant response rating (corn; [9])
55: Plant response rating, Blackgrass (blackgrass; [8])
70: Morningglory plant response rating (morningglory; [5])
95: Blackgrass plant response rating (blackgrass; [7]) | Blackgrass plant response rating (blackgrass; [9]) | Plant response rating, Sedge, Umbrella (umbrella sedge; [11]) | Plant response rating, Sedge, Umbrella (umbrella sedge; 250 g ai/ha, scale 0 to 100, 0 no effect, 100 complete control, 13 to 15 days)
60: Plant response rating, Cupgrass, Woolly (woolly cupgrass; [2]) | Nutsedge, Yellow plant response rating (yellow nutsedge; 62 g ai/ha, scale 0 to 100) | Plant response rating, Sedge, Umbrella (umbrella sedge; [2])
50: Plant response rating, Nutsedge, Yellow (yellow nutsedge; [2]) | Pigweed plant response rating (redroot pigweed; [4])
98: Plant response rating (0 to 100), Blackgrass (blackgrass; Preemergence, 250 g ai/ha)
80: Crabgrass, Large plant response rating (crabgrass; [4]) | Plant response rating, Ducksalad (duck salad; [10]) | Ragweed plant response rating (common ragweed; 62 g ai/ha, scale 0 to 100)
20: Corn plant response rating (corn; [7]) | Plant response rating, Ducksalad (duck salad; [2]) | Morningglory plant response rating (morningglory; [3])
100: Goosegrass plant response rating (Goosegrass; 62 g ai/ha, scale 0 to 100) | Plant response rating, Goosegrass (Goosegrass; [2]) | Plant response rating (0 to 100), Goosegrass (Goosegrass; 250 g ai/ha) | Plant response rating (0 to 100), Corn (corn; Preemergence, 250 g ai/ha) | Cupgrass, Woolly plant response rating (woolly cupgrass; 62 g ai/ha, scale 0 to 100) | Foxtail, Green plant response rating (green foxtail; 62 g ai/ha, scale 0 to 100) | Plant response rating, Foxtail, Green (green foxtail; [2]) | Plant response rating (0 to 100), Foxtail, Green (green foxtail; 250 g ai/ha) | Pigweed plant response rating (redroot pigweed; [5]) | Plant response rating, Pigweed (redroot pigweed; [6])
85: Plant response rating, Ducksalad (duck salad; [11]) | Nightshade plant response rating (eastern black nightshade; 62 g ai/ha, scale 0 to 100) | Plant response rating, Sedge, Umbrella (umbrella sedge; [10])
45: Oat, Wild plant response rating (wild oat; 62 g ai/ha, scale 0 to 100)
